Tests used:
Ire1 = test: Summary statement of Ire1 activation or inhibition (assay not specified)
[1] = test system: XBP1-GFP reporter in Hek293-FT cells; test: FACS on Hek293-FT cells transfected with XBP1-GFP reporter; assay type: cell-based; details: treated for 24 hrs
Procedure: Exemplary compounds were assayed and the results are set froth in the table below.

[2] = test system: Xbp-1 mRNA splicing (UPR activation through Ire1) in HEK293 cells; test: XBP-1 mRNA splicing by RT-PCR in HEK293 cells (UPR); assay type: cell-based, mammalian; details: for % splicing mRNA XBP-I Average: Hek293 cells treated for 4 hrs, RT-PCR; for in vivo activation of Ire1: summary statement
Procedure: The effect of tunicamycin, SU11248, DJM2005, APY24, and APY29 on Ire1 activity was tested in mammalian cells using HEK293 cells as a model system. Cells were treated according to the methods described in Lin J H et al., Science 318:944 (2007). After treatment with the corresponding agents for the indicated time, Xbp-1 mRNA splicing was determined by RT-PCR. Unspliced (u) and spliced (s) Xbp1-mRNA products are indicated and serve as a measure of UPR activation through Ire1.
Exemplary compounds were assayed for their effect on UPR. Results are set forth in FIGS. 18-19 and in the table below.

yIre1 = target: T1, yIre1 (Saccharomyces cerevisiae, UniProt P32361); test: RNA cleavage-based yIre1 activation assay; assay type: biochemical, yeast; design: unit not given here; details: 3 μM yIre1, stem loop RNA, 15 μM effector
T1 construct: GST (N); made in house; host or cells: E. coli BL21 CodonPlus (RIPL)
T1 sequence (P32361 with tags, fused parts or gaps limits assumed): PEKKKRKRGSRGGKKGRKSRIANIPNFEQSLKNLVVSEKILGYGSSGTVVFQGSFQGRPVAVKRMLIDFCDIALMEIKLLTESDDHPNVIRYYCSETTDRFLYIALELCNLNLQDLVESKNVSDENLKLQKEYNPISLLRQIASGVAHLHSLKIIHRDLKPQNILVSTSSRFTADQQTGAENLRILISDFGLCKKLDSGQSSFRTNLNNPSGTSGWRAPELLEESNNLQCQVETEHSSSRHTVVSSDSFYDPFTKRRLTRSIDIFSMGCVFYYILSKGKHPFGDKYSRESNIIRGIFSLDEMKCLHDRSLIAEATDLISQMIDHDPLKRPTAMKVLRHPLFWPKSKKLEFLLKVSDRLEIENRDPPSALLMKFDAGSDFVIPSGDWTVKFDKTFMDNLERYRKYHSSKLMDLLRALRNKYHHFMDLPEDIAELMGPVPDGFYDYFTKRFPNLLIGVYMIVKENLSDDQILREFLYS
Procedure: The RNase Cleavage Assay.
RNA cleavage reactions were conducted at 30° C. in buffer containing 20 mM HEPES (pH 7.5), 70 mM NaCl, 2 mM ADP (pH 7.0), 2 mM Mg(OAc)2, 5 mM DTT, 5% glycerol, less than 1 nM ^32p-labeled RNA substrate, and 3 nM-20 μM Ire1. Reaction solutions and buffers were designed using Biochem Lab Solutions 3.5. Reactions were prepared such that 1 μl of RNA was added to 9 μl of pre-warmed reaction mixture containing all components except RNA. Typically, 3-10 minute time courses were collected starting from 5 seconds for the first time point. At time intervals, 1 μl of solution was withdrawn from each reaction and mixed wish 6 μl stop solution containing 10 M urea, 0.1% SDS, 0.1 mM EDTA, 0.05% xylene cyanol, and 0.05% bromophenol blue. The samples were separated by a denaturing 10% PAGE and exposed on a phosphor storage screen. The screens were scanned on a Storm or a Typhoon instrument and quantified using ImageQuant 5.0 or GelQuant.NET 1.4 programs. The data were plotted and fit in SigmaPlot 6.0.
RNA cleavage can be used to assess yIre1 activation as shown by FIG. 20 and the table below (3 μM yIre1, stem loop RNA, 15 μM effector): […]

RNA cleavage (yIre1 activation) (yIre1)	Compound	inhibition of Ire1 (Ire1)	% fold induction to Control ([1]; Tm 0.3 ug/ml + compound 2 uM)	Mean fluorescence ([1]; Tm 0.3 ug/ml + compound 2 uM)	% fold induction to Control ([1]; compound 2 uM)	Mean fluorescence ([1]; compound 2 uM)	% splicing mRNA XBP-I Average ([2]; Tm 0.3 ug/ml + compound 2 μM)	% splicing mRNA XBP-I Average ([2]; compound 2 μM)	% splicing mRNA XBP-I Average ([2]; compound 10 μM)	activation of Ire1 (Ire1)	in vivo activation of Ire1 [2]	% fold induction to Control ([1]; Tm alone)	Mean fluorescence ([1]; Tm alone)	% splicing mRNA XBP-I Average ([2]; Tm alone)
0.00232	OCCc1ccc(Nc2nccc(Nc3cc(C4CCCCC4)n[nH]3)n2)cc1 [APY33]	significant inhibition	49%	3613	16%	2811	8%	8%	18%					
0.0014	N#CCc1ccc(Nc2nccc(Nc3cc(C4CCCCC4)n[nH]3)n2)cc1 [APY34]		78%	4318	17%	2836	7%	12%	34%					
0.000897	CC(=O)Nc1ccc(Nc2nccc(Nc3cc(C4CCCCC4)n[nH]3)n2)cc1 [APY36]						16%	10%	19%					
0.005304	N#CCc1ccc(Nc2nc(Nc3cc(C4CC4)n[nH]3)c3ccccc3n2)cc1 [APY65]						29%	22%	51%	significant activation	significant in vivo activation			
0.00175	CC(=O)Nc1ccc(Nc2nccc(Nc3cc(C4CCCC4)n[nH]3)n2)cc1 [APY75]						44%	9%	17%					
0.03994	OCCc1ccc(Nc2nccc(Nc3cc(C4CCCC4)n[nH]3)n2)cc1 [APY76]						11%	23%	39%	significant activation	significant in vivo activation			
0.002028	N#CCc1ccc(Nc2nc(Nc3cc(C4CCCC4)n[nH]3)c3ccccc3n2)cc1 [APY78]						11%	11%	27%					
0.000626	N#CCc1ccc(Nc2nc(Nc3cc(C4CCCCC4)n[nH]3)c3ccccc3n2)cc1 [APY79]													
0.001022	Cc1cc(Nc2cc(C3CCCC3)n[nH]2)nc(Nc2ccc(CC#N)cc2)n1 [APY80]	significant inhibition					9%	12%	28%					
0.002172	N#CCc1ccc(Nc2nc(Nc3cc(C4CCC4)n[nH]3)c3ccccc3n2)cc1 [APY82]						27%	29%	27%		significant in vivo activation			
0.02693	Cc1cc(Nc2cc(C3CCC3)n[nH]2)nc(Nc2ccc(CC#N)cc2)n1 [APY83]						29%	21%	55%	significant activation	significant in vivo activation			
0.004672	N#CCc1ccc(Nc2nccc(Nc3cc(-c4cccs4)n[nH]3)n2)cc1 [APY84]	significant inhibition					12%	21%	60%		significant in vivo activation			
0.003287	Cc1ccc(-c2cc(Nc3nc(Nc4ccc(CC#N)cc4)nc4ccccc34)[nH]n2)s1 [APY85]						13%	15%	14%	significant activation				
	tunicamycin [Tm, reference compound]											59%	3869	78%

Reference: patent US9382230B2, “Methods and compositions for modulating Ire1, SRC and ABL activity” (The Regents of the University of California, priority 2008, dated 2016)
